# Results published in paper PMC7995547, “ω‐Imidazolyl‐alkyl derivatives as new preclinical drug candidates for treating non‐alcoholic steatohepatitis” (Physiological Reports, 2021).
# System: HFD‐induced NASH rat model (liver)
# Assay: Oxidative stress (ROS status) in the liver, HFD-induced NASH rat model
# Type: in vivo, Wistar rats
# Settings: for Dose dependence of the effect on SRA level: Pearson correlation / linear regression; for Increase in GR activity compared to disease group: I‐ol, I‐an groups overall; for Increase in GR activity compared to disease group / Decrease in SRA level compared to disease group / Decrease in TBARS level compared to disease group / Reduction of the effect of HFD on the SRA level / Reduction of the effect of HFD on the TBARS level: UDCA 40 mg/kg b.w.; for Decrease in SRA level compared to disease group: average over 0.4, 4, 40 mg/kg b.w. (I‐ol, I‐an), oral gavage daily, last 4 of 16 weeks HFD; for Decrease in TBARS level compared to disease group / Reduction of the effect of HFD on the SRA level / Reduction of the effect of HFD on the TBARS level: average over doses (I‐ol, I‐an)
# Procedure: Studies were done using Wistar rats of female sex by the Institute of Pharmacology and Biochemistry at Minsk. The animals were 80–90 days old and weighed 180–200 g. They had free access to a liquid Lieber‐DeCarli (LDC) diet (Lieber et al., 2004) and were housed under standard conditions meaning a 12‐h light/dark cycle at 22 ± 2°C and 55 ± 5% humidity.
# The rats were divided into 10 groups based on the diets and experimental substances administered (Figure 2).
# Group 1 was designated as the first control group; it was fed a normal standard solid diet. Group 2, as the second control group, was fed a standard amount of fat as a part of the liquid “physiological,” non‐high fat LDC diet. All other groups received the liquid ‘disease‐causing’ LDC diet (Table 2), including a high content of unsaturated fatty acids.
# Both LDC diets were in a liquid form as produced by ssniff‐Spezialdiäten GmbH, Soest (Germany). The feed was provided over the entire experimental period of 16 weeks; however, the corresponding experimental substances were only administered in the last four weeks (Figure 3).
# The experimental substances I‐ol, I‐an, and UDCA were dissolved in a 0.8% aqueous HPMC gel to obtain the following concentrations: (1) I‐ol at 0.4, 4, and 40 mg/kg body weight (b.w.), (2) I‐an at 0.4, 4, and 40 mg/kg b.w., and (3) UDCA at 40 mg/kg b.w. The Group‐2 and −3 rats received only HPMC as placebo. Each test encompassed 6–8 rats that were put up in a separate cage. The rats were fed ad libitum, and their intake per cage was controlled daily. In order to ensure an exact daily reproducible dosage, the experimental substances or only HPMC was administered intragastrically via oral gavage. Basically, the drug therapy of a chronic disease is the more efficient the higher the adherence of the affected patients. This is generally higher with peroral administration than with any other form of application. At the end of the experiment, the animals were sacrificed under fasting conditions, by aorta dissection and exsanguination, after anesthetizing with an intraperitoneal injection of 5% pentobarbital solution.
# The formation of ROS in the rat liver was measured using NADPH‐induced chemiluminescence as described by Müller‐Peddinghaus et al. (Muller‐Peddinghaus, 1987). Luminol and lucigenin were used for detecting the superoxide radical anion (SRA) and hydrogen peroxide. Liver pieces were homogenized in 0.1 M sodium phosphate buffer, pH 7.4; the homogenates were centrifuged at 9,000 × g at 0°C; and aliquots were used for subsequent measurements. Reduced glutathione (GSH) was estimated via a modified Ellman's method (Ellman, 1959), in which 0.2 mL of the liver homogenate supernatant was added to 1.6 mL of an EDTA/sodium phosphoric acid solution and the absorbance noted at 412 nm against blank values. GSH solution produced immediately before application served as the standard. The end products of the lipid peroxidation reaction were equivalent to the thiobarbituric acid‐reacting substances (TBARS), and their concentration was measured according to the method described by Buege et al. (Buege & Aust, 1978). Enzymatic activities of microsomal glutathione reductase (GR) and cytosolic glutathione peroxidase (GPx) were measured according to the methodology of Buko et al. (Buko et al., 2002). Catalase activity was determined according to the spectroscopic methodology described by Beers et al. (Beers & Sizer, 1952) using hydrogen peroxide as the substrate.
# [1] = liver, highest concentration (40 mg/kg b.w.)
compound,measurement,setting,value
"CCCCCCCCCCCCn1ccnc1 [I‐an, 1‐imidazolyldodecane]",Dose dependence of the effect on GSH level,"0.4, 4, 40 mg/kg b.w.","weak, significant (p < 0.05), linear, dose‐dependent effect"
same,Dose dependence of the effect on SRA level,"0.4, 4, 40 mg/kg b.w.","weak, significant (p < 0.05), linear, dose‐dependent effect"
same,Increase in GR activity compared to disease group,liver,no effect
same,Decrease in SRA level compared to disease group,liver,23%
same,Decrease in TBARS level compared to disease group,liver,35%
same,Reduction of the effect of HFD on the SRA level,liver,65%
same,Reduction of the effect of HFD on the TBARS level,liver,82%
same,Decrease in hydrogen peroxide level compared to disease group,[1],43%
same,Hydrogen peroxide level below the reference values of group 1,[1],4%
same,Increase in GSH level compared to disease group,[1],63%
same,Reduction of SRA level,[1],75%
same,Reduction of the effect of HFD on GSH level,[1],87%
"OCCCCCCCCCCCCn1ccnc1 [I‐ol, 12‐imidazolyl‐1‐dodecanol]",Dose dependence of the effect on hydrogen peroxide level,"0.4, 4, 40 mg/kg b.w.","strong, very highly significant (p < 0.001), linear, dose‐dependent effect"
same,Dose dependence of the effect on SRA level,"0.4, 4, 40 mg/kg b.w.","strong, very highly significant (p < 0.001), linear, dose‐dependent effect"
same,Increase in GR activity compared to disease group,liver,28%
same,Decrease in SRA level compared to disease group,liver,21%
same,Decrease in TBARS level compared to disease group,liver,38%
same,Reduction of the effect of HFD on the SRA level,liver,60%
same,Reduction of the effect of HFD on the TBARS level,liver,87%
same,Effect on GSH level (in words),"liver, compound overall",non‐significant trend toward an increasing GSH level
same,Decrease in hydrogen peroxide level compared to disease group,[1],50%
same,Hydrogen peroxide level below the reference values of group 1,[1],16%
same,SRA level below the reference value of control group 1,[1],24%
same,"Effect of HFD nullified, GR activity increased by (on an average)","liver, relative to the effect of HFD",113%
